Results on 4 compounds are retold here after patent US7407775B2, “Method for identifying Listeria monocytogenes and culture medium” (Biomerieux S.A., priority 2000, dated 2008).

Holding throughout (format): cell-based
What all share (parameters): key: —: the symbol “-” corresponds to the absence of color or intensity; 0 corresponds to no activity; 0.1 corresponds to a trace of color; 0.5 corresponds to very pale coloration; 1 corresponds to clear but low-intensity coloration; 1.5 corresponds to a degree of coloration intermediate between scores 1 and 2; 2 corresponds to clear coloration of moderate intensity; 2.5 corresponds to a degree of coloration intermediate between scores 2 and 3; 3 corresponds to intense coloration; 3.5 corresponds to a degree of coloration intermediate between scores 3 and 4; 4 corresponds to very intense coloration

For experiment [1], the system named is Listeria innocua ATCC 33090. Briefly: Experiment 2: octanoate esterase substrates with different Indoxyl-based chromogenic markers. To be noted: 37° C., substrate 250 mg/l. The procedure: (§1) In Table 1 above, as in the following Tables, C represents the color of the colonies after incubation, I represents the intensity of the color, and the symbol “-” corresponds to the absence of color or intensity; finally, IT defines the incubation time. It should be noted that the intensity of the color is scored on an arbitrary scale but one which is consistent for all the biological specimens and media tested. This scale is valid for this experiment as well as all those that follow. It can be defined in the following way: • 0 corresponds to no activity, • 0.1 corresponds to a trace of color, • 0.5 corresponds to very pale coloration, • 1 corresponds to clear but low-intensity coloration, • 1.5 corresponds to a degree of coloration intermediate between scores 1 and 2, • 2 corresponds to clear coloration of moderate intensity, • 2.5 corresponds to a degree of coloration intermediate between scores 2 and 3, • 3 corresponds to intense coloration, • 3.5 corresponds to a degree of coloration intermediate between scores 3 and 4, • 4 corresponds to very intense coloration.
(§2) A stock solution of each substrate at a concentration of 40 g/l was made up in a mixture of 40% Dimethylsulfoxide and 60% Tween 20. An appropriate volume was added to four Columbia-type media while cooling to give a final substrate concentration of 250 mg/l. These dishes were divided into three areas and then each area was inoculated with a suspension (density=0.5 McFarland) of microorganisms taken from either the Applicant's own collection or the ATCC. The dishes were incubated for 48 hours at 37° C. The colonies which grew were examined by eye after 24 and 48 hours of incubation. Both the color and the intensity of the color of the colonies were recorded.

The test system of a further experiment is Listeria ivanovii 025. Described as above. To be noted: 37° C., substrate 250 mg/l. As for the experimental part: as §1, §2
A further experiment deals with Listeria ivanovii 018. Described as above. To be noted: 37° C., substrate 250 mg/l. The procedure:
as §1, §2

Experiment [2] relates to Listeria innocua 171. The experiment is described as above. To be noted: 37° C., substrate 250 mg/l. The procedure:
as §1, §2

The test system of another experiment is Listeria innocua 166. The description is as above. To be noted: 37° C., substrate 250 mg/l. As for the experimental part: as §1, §2
The test system of experiment [3] is Listeria innocua 171. Briefly: Experiment 3: detecting an esterase activity in liquid medium (API-type strips). To be noted: 37° C. The procedure: as §1
These substrates were lyophilized in the wells of API-type strips (Registered Trademark). Before use, the substrates contained in the wells were resuspended in an agar-free Columbia-type inoculation medium. These wells were then inoculated with a suspension (density=2 McFarland) of microorganisms taken from either the Applicant's own collection or the ATCC. The strips were incubated for 8 hours at 37° C. The colonies which grew were examined by eye after 4, 6 and 8 hours of incubation.
The intensity of the color of the colonies was recorded.

For the compound `CCCCCCCC(=O)Oc1c[nH]c2ccc(Br)cc12` [Blue-C8, 5-Bromo-3-indolyl octanoate], the “C (color of the colonies)” value in experiment [1] (IT 24 h) is “gray”; in experiment [1] (IT 48 h) it was “gray”; with Listeria ivanovii 025 (IT 24 h), “—”; in the experiment on Listeria ivanovii 025 (IT 48 h), “—”; in the experiment on Listeria ivanovii 018 (IT 24 h), “—”; in the experiment on Listeria ivanovii 018 (IT 48 h), “—”. Moreover, the “C (color of the colonies)” value is recorded as “—” in the experiment on Listeria innocua 171 [2] (IT 24 h), “gray” with Listeria innocua 171 [2] (IT 48 h), “gray” with Listeria innocua 166 (IT 24 h) and “gray” with Listeria innocua 166 (IT 48 h). The “I (intensity of the color)” value is given as 0.3 in experiment [1] (IT 24 h); 0.5 in experiment [1] (IT 48 h); “—” with Listeria ivanovii 025 (IT 24 h); “—” in the experiment on Listeria ivanovii 025 (IT 48 h); “—” in the experiment on Listeria ivanovii 018 (IT 24 h); “—” with Listeria ivanovii 018 (IT 48 h). The “I (intensity of the color)” value is on record as “—” in the experiment on Listeria innocua 171 [2] (IT 24 h), 0.3 in the experiment on Listeria innocua 171 [2] (IT 48 h), 0.3 in the experiment on Listeria innocua 166 (IT 24 h) and 1 in the experiment on Listeria innocua 166 (IT 48 h).

In the case of `CCCCCCCC(=O)Oc1c[nH]c2cc(Cl)c(Br)cc12` [Magenta-C8, 5-Bromo-6-chloro-3-indolyl octanoate], the “I (intensity of the color)” value is listed as “—” in the experiment with Listeria innocua 171 [3] (IT 4 h); “—” in the experiment on Listeria innocua 171 [3] (IT 6 h); “—” in the experiment with Listeria innocua 171 [3] (IT 8 h); 1 in experiment [1] (IT 24 h); 2 in experiment [1] (IT 48 h); “—” in the experiment on Listeria ivanovii 025 (IT 24 h). In addition, the “I (intensity of the color)” value in the experiment on Listeria ivanovii 025 (IT 48 h) was “—”; with Listeria ivanovii 018 (IT 24 h), “—”; in the experiment on Listeria ivanovii 018 (IT 48 h), “—”; in the experiment on Listeria innocua 171 [2] (IT 24 h) it was 0.5; in the experiment with Listeria innocua 171 [2] (IT 48 h), 3; in the experiment on Listeria innocua 166 (IT 24 h), 2. Also, in the experiment on Listeria innocua 166 (IT 48 h), the “I (intensity of the color)” value is 3. Besides, the “C (color of the colonies)” value in experiment [1] (IT 24 h) is “purple”; in experiment [1] (IT 48 h), “purple”; in the experiment on Listeria ivanovii 025 (IT 24 h), “—”; with Listeria ivanovii 025 (IT 48 h), “—”; in the experiment with Listeria ivanovii 018 (IT 24 h) it was “—”; in the experiment on Listeria ivanovii 018 (IT 48 h), “—”. Besides, the “C (color of the colonies)” value with Listeria innocua 171 [2] (IT 24 h), in the experiment on Listeria innocua 171 [2] (IT 48 h), with Listeria innocua 166 (IT 24 h) and with Listeria innocua 166 (IT 48 h) was “purple” in each case.

In the case of `CCCCCCCC(=O)Oc1c[nH]c2cc(Cl)ccc12` [Pink-C8, 6-Chloro-3-indolyl octanoate], the “I (intensity of the color)” value is given as “—” in the experiment with Listeria innocua 171 [3] (IT 4 h); “—” with Listeria innocua 171 [3] (IT 6 h); “—” in the experiment on Listeria innocua 171 [3] (IT 8 h); “—” in experiment [1] (IT 24 h); 0.5 in experiment [1] (IT 48 h); “—” in the experiment with Listeria ivanovii 025 (IT 24 h). In addition, the “I (intensity of the color)” value was “—” with Listeria ivanovii 025 (IT 48 h); “—” in the experiment on Listeria ivanovii 018 (IT 24 h); “—” in the experiment on Listeria ivanovii 018 (IT 48 h); “—” with Listeria innocua 171 [2] (IT 24 h); 0.3 in the experiment with Listeria innocua 171 [2] (IT 48 h); “—” in the experiment on Listeria innocua 166 (IT 24 h). In addition, the “I (intensity of the color)” value with Listeria innocua 166 (IT 48 h) is given as 0.3. In addition, the “C (color of the colonies)” value is given as “—” in experiment [1] (IT 24 h); “pink” in experiment [1] (IT 48 h); “—” in the experiment on Listeria ivanovii 025 (IT 24 h); “—” with Listeria ivanovii 025 (IT 48 h); “—” in the experiment on Listeria ivanovii 018 (IT 24 h); “—” in the experiment on Listeria ivanovii 018 (IT 48 h). The “C (color of the colonies)” value is reported as “—” in the experiment with Listeria innocua 171 [2] (IT 24 h), “pink” in the experiment on Listeria innocua 171 [2] (IT 48 h), “—” in the experiment on Listeria innocua 166 (IT 24 h) and “pink” in the experiment on Listeria innocua 166 (IT 48 h).

As for `CCCCCCCC(=O)Oc1c[nH]c2ccc(Br)c(Cl)c12` [X-C8, 5-Bromo-4-chloro-3-indolyl octanoate], the “I (intensity of the color)” value is given as “—” in the experiment on Listeria innocua 171 [3] (IT 4 h); “—” in the experiment on Listeria innocua 171 [3] (IT 6 h); “—” in the experiment on Listeria innocua 171 [3] (IT 8 h); 0.3 in experiment [1] (IT 24 h); 0.5 in experiment [1] (IT 48 h); “—” in the experiment on Listeria ivanovii 025 (IT 24 h). The “I (intensity of the color)” value was “—” in the experiment on Listeria ivanovii 025 (IT 48 h); “—” in the experiment with Listeria ivanovii 018 (IT 24 h); “—” in the experiment on Listeria ivanovii 018 (IT 48 h); “—” with Listeria innocua 171 [2] (IT 24 h); 0.3 in the experiment with Listeria innocua 171 [2] (IT 48 h); 0.3 in the experiment on Listeria innocua 166 (IT 24 h). In addition, the “I (intensity of the color)” value in the experiment with Listeria innocua 166 (IT 48 h) worked out at 0.5. Besides, the “C (color of the colonies)” value is “turquoise” in experiment [1] (IT 24 h); “turquoise” in experiment [1] (IT 48 h); “—” in the experiment on Listeria ivanovii 025 (IT 24 h); “—” with Listeria ivanovii 025 (IT 48 h); “—” in the experiment on Listeria ivanovii 018 (IT 24 h); “—” with Listeria ivanovii 018 (IT 48 h). For the same compound, the “C (color of the colonies)” value with Listeria innocua 171 [2] (IT 48 h), in the experiment on Listeria innocua 166 (IT 24 h) and with Listeria innocua 166 (IT 48 h) was “turquoise” each time.
